From PMC8689225, “Cardiac ryanodine receptor N-terminal region biosensors identify novel inhibitors via FRET-based high-throughput screening” (The Journal of Biological Chemistry, 2021)

Key:
RyR2 = target: T1, RyR2 (Sus scrofa, UniProt A0A5G2R1W3); assay: [3H]ryanodine binding to cardiac SR (CSR) vesicles; type: biochemical, pig
T1 construct: from tissue; host or cells: porcine cardiac left ventricle, crude SR vesicles
Method: Crude sarcoplasmic reticulum membrane vesicles were isolated from porcine longissimus dorsi muscle and porcine cardiac left ventricle tissue by differential centrifugation of homogenized tissue, as established previously ([65]). Skeletal heavy SR (HSR) vesicles, which are enriched with RyR1, were isolated by fractionation of crude skeletal SR vesicles using a discontinuous sucrose gradient, in accordance with our published work ([65]). All vesicles were flash-frozen and stored at −80 °C.
In 96-well plates, skeletal SR membranes (HSR, 1 mg/ml) and cardiac SR membranes (CSR, 3 mg/ml) were preincubated with 1% DMSO or hit compound for 30 min at 22 °C in a solution containing 150 mM KCl, 5 mM GSH, 1 μg/ml Aprotinin/Leupeptin, 1 mM EGTA, and 65 μM or 1.02 mM CaCl2 (as determined by MaxChelator to yield 30 nM or 30 μM of free Ca^2+, respectively), 0.1 mg/ml of BSA, and 20 mM K-PIPES (pH 7.0). Nonspecific [^3H]ryanodine binding to SR was assessed by addition of 40 μM nonradioactively labeled ryanodine. Maximal [^3H]ryanodine binding was assessed by addition of 5 mM adenylyl-imidodiphosphate (AMP-PNP), and in the case of CSR, 20 mM caffeine was added. These control samples were each loaded over four wells per plate. Binding of [^3H]ryanodine (7.5 and 10 nM for CSR and HSR, respectively) was determined following a 3 h incubation at 37 °C and filtration through grade GF/B glass microfiber filters (Brandel Inc) using a Brandel Harvester. In 4 ml of Ecolite scintillation cocktail (MP biomedicals), [^3H]ryanodine retained on the filter was counted using a Beckman LS6000 scintillation counter.

RyR1 = target: T2, RyR1 (Rattus norvegicus, UniProt F1LMY4); assay: t-tubule Ca2+ measurement of RyR1 leak in skinned skeletal muscle fibers; type: cell-based; conditions: 10 μM FA or 1 mM tetracaine, [Ca2+]cyto 200 nM
T2 construct: from tissue; host or cells: Wistar rat extensor digitorum longus (EDL), mechanically skinned single fibres
Method: All experimental methods using rodents were approved by the Animal Ethics Committees at The University of Queensland and were performed in accordance with the relevant guidelines and regulations. Five-month-old Wistar rats (UQ Biological Resources) were euthanized by asphyxiation via CO2 exposure, and the extensor digitorum longus (EDL) was rapidly excised. Once dissected, muscles were pinned to Sylgard set in a Petri dish containing paraffin oil.
Bundles of fibers were isolated and exposed to an internal solution containing rhod-5N, as described previously ([47]). After 15 min incubation, single skeletal muscle fibers were mechanically skinned and mounted in a custom-made chamber. […] For tracking Ca^2+ movements across the t-system membrane, images were continuously recorded in xyt mode with an aspect ratio of 256 × 512, with the long aspect of the image parallel with that of the preparation. Temporal resolution of imaging in this mode where the fluorescence signal was within the borders of the fiber was 0.8 s.
T-system rhod-5N fluorescence was converted to [Ca^2+]t-sys as previously described ([47]). To determine the effect of RyR modulators on the RyR Ca^2+ leak, isolated mechanically skinned fibers were continuously imaged as described above, to obtain a record of t-system rhod-5N fluorescence changes over time as the cytoplasmic solution bathing the fiber was changed. […]

T1 sequence (A0A5G2R1W3 20-4900): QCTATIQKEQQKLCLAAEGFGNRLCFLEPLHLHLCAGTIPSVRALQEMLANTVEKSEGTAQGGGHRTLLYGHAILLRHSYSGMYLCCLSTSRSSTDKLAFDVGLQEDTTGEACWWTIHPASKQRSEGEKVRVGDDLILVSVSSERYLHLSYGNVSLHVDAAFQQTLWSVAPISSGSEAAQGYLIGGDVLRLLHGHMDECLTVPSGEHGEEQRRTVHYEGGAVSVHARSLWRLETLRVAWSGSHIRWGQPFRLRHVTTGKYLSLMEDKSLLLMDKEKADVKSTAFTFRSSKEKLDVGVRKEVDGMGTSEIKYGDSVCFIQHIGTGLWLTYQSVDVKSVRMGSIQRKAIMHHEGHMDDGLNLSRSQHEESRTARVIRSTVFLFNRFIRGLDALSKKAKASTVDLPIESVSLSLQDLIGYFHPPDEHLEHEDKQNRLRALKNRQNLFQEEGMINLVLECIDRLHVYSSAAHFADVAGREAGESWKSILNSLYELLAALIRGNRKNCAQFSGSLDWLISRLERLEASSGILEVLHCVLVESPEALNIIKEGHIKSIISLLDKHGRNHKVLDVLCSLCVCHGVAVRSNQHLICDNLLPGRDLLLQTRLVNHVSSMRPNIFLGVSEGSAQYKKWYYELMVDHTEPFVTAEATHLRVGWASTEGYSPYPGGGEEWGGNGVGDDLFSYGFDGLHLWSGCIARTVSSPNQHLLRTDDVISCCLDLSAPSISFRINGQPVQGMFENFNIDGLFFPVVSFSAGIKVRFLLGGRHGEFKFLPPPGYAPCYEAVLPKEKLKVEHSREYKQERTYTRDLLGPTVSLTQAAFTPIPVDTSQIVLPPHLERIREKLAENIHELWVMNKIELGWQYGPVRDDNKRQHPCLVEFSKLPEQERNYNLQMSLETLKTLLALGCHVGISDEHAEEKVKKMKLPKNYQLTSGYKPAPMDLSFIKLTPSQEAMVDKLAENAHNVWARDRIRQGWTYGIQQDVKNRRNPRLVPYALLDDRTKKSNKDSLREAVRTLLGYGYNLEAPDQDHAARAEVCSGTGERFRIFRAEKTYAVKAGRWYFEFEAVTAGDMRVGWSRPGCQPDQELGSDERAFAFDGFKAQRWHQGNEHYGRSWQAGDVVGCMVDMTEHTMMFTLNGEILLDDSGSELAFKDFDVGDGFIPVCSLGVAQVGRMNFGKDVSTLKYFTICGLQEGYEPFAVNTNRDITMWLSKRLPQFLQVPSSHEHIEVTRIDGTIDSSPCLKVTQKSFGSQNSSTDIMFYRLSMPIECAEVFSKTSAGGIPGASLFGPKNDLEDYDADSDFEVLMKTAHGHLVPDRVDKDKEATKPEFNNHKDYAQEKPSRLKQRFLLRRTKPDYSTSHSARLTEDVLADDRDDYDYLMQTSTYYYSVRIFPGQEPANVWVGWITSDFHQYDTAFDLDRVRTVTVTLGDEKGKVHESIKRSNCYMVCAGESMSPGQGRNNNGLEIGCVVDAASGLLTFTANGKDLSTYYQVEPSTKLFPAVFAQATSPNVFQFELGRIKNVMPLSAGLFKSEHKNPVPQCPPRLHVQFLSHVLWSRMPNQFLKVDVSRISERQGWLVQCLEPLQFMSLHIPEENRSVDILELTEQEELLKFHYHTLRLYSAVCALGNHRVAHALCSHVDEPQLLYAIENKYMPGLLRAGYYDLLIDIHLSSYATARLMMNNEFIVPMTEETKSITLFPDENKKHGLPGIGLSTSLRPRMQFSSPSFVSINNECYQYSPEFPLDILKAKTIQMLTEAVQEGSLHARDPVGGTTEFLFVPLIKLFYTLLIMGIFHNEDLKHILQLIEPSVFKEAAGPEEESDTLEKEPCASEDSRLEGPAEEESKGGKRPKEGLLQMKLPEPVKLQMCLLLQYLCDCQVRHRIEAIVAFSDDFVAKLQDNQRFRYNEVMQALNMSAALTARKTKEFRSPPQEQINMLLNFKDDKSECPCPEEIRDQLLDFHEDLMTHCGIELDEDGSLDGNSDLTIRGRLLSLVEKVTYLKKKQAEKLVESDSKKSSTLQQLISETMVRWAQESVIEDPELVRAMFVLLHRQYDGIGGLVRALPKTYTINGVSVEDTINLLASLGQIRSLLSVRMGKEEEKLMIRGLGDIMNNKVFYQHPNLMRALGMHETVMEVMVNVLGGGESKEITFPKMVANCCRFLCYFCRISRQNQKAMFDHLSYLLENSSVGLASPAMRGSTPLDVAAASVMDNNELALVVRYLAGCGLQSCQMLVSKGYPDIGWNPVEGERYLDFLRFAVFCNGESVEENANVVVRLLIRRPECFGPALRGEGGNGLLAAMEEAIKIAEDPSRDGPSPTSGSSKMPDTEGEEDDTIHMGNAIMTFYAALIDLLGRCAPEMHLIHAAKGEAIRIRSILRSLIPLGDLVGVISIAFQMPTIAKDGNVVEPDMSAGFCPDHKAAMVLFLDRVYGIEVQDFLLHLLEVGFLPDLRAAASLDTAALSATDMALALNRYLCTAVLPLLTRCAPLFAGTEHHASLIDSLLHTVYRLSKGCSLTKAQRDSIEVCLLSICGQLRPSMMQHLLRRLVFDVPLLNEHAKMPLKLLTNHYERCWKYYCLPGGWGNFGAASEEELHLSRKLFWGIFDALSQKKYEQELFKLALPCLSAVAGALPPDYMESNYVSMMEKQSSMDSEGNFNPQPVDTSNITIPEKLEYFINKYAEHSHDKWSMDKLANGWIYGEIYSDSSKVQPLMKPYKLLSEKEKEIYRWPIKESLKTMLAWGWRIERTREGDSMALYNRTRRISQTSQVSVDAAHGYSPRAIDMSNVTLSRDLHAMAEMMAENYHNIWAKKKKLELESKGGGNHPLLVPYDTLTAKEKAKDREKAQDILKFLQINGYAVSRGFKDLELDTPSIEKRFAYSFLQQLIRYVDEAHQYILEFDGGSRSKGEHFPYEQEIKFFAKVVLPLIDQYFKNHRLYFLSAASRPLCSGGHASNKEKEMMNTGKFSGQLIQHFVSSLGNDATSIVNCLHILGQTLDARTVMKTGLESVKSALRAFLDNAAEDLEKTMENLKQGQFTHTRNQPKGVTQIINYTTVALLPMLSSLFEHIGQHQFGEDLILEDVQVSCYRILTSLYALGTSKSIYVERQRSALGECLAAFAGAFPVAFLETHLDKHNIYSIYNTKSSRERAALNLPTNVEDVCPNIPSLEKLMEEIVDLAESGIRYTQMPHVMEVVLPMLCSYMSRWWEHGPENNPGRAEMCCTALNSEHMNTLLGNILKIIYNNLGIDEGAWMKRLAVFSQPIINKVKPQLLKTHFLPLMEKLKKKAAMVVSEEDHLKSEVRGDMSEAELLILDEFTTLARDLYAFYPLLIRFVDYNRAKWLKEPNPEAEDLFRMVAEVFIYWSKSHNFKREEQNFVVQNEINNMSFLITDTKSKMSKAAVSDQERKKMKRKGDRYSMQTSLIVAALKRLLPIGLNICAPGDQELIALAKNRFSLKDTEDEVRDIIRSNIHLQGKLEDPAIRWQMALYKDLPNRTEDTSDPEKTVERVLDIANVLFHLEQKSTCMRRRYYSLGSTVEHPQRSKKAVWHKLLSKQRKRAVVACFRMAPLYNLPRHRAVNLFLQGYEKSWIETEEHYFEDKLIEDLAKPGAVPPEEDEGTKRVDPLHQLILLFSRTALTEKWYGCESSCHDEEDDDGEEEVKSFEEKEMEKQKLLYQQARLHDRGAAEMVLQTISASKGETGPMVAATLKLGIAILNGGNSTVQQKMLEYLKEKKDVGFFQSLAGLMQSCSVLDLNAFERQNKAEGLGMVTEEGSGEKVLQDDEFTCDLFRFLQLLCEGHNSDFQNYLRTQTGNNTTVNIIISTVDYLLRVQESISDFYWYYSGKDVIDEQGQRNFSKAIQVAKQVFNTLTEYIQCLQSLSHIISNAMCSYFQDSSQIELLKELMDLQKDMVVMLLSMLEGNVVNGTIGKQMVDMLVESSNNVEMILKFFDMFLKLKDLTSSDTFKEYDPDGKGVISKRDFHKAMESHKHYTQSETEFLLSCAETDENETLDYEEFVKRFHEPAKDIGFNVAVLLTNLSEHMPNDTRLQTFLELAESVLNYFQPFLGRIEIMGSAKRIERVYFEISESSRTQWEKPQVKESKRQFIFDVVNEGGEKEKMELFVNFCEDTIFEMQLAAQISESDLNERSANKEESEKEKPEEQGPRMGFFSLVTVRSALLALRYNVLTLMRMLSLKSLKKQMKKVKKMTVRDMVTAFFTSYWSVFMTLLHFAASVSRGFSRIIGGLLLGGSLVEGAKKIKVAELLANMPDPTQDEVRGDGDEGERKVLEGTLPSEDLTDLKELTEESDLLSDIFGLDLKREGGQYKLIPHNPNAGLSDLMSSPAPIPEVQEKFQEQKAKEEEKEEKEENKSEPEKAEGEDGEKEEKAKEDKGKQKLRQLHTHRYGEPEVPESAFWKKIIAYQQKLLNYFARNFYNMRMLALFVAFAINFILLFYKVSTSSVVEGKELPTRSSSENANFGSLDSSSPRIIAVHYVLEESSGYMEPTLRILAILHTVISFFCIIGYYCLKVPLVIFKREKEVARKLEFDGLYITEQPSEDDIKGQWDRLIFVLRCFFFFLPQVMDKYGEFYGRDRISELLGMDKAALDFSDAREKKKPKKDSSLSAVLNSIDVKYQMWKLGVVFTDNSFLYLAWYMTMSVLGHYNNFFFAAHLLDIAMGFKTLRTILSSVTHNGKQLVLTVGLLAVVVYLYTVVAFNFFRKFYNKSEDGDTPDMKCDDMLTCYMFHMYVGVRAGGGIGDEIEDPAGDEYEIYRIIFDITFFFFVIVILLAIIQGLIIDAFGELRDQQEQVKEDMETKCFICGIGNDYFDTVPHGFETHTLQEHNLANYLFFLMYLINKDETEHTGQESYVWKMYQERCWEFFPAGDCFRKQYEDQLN

CC(=O)O[C@H]1C[C@@]2(C)[C@@H](C[C@@H](O)[C@H]3[C@@]4(C)CC[C@@H](O)[C@@H](C)[C@@H]4CC[C@@]32C)/C1=C(\CCC=C(C)C)C(=O)O [FA, (2Z)-2-[(3R,4S,5S,8S,9S,10S,11R,13R,14S,16S)-16-acetyloxy-3,11-dihydroxy-4,8,10,14-tetramethyl-2,3,4,5,6,7,9,11,12,13,15,16-dodecahydro-1H-cyclopenta[a]phenanthren-17-ylidene]-6-methylhept-5-enoic acid]
EC50 (RyR2; [Ca2+] 30 nM, Table S4, read-out: EC50, [3H]ryanodine binding, cardiac SR): 1700 nM
effect on [3H]ryanodine binding to RyR2 (RyR2; cardiac SR, 30 μM Ca2+): slight activation at high concentrations
steady-state [Ca2+]t-sys (RyR1 leak) (RyR1): decreased
